Data from patent US6783756B2, “Methods for regulating gene expression” (Abbott GmbH & Co., KG, priority 1993, dated 2004).

Key:
lacR = lacR (Escherichia coli, UniProt P03023); conditions: cited from earlier work
lacR/O = conditions: eucaryotic cells; cited from earlier work
[1] = compared to Tc; cited from earlier work
HeLa cells = assay: Growth behavior and morphology of HeLa cells in tetracycline-containing medium; assay type: cell-based, human
Description: The tTA inactivation studies were carried out with 1 μg of tetracycline per ml in the culture medium. […] Only at tetracycline concentrations well above 10 μg/ml were such changes observed upon prolonged incubation.

tTA = molecular target: T1, tTA (Escherichia coli, UniProt P04483); assay: Kinetics of tetracycline action on luciferase activity in X1 cells; assay type: cell-based, human; conditions: for Luciferase activity after addition of tetracycline, share of original value: tetracycline 1 μg/ml
T1 construct: LOCATION: 1..207; expressed in transfected cells
Description: FIG. 3B: Kinetics of tetracycline action. X1 cells were grown in 100 mm dishes to 80% confluency in the absence or presence (0.1 μg/ml) of tetracycline. At time 0, cells were washed with phosphate-buffered saline and split into smaller culture dishes ( 1/20th of the initial cultures per 35 mm dish). Half of the cultures remained in tetracycline-free medium (▪) and the other half were incubated in the presence of tetracycline (1 μg/ml; □). The X1 culture grown in tetracycline-containing medium was split in the same manner; one half was further incubated in the presence of tetracycline (●), whereas the other half was transferred to tetracycline-free medium (∘). At the times indicated, aliquots were harvested and examined for luciferase activity. The slight increase in luciferase activity monitored at 4 hr in the culture containing tetracycline (●) is reproducible and reflects luciferase induction during the washing step.
The time course of tetracycline action was analyzed in cultures grown in the absence or presence of tetracycline. At time 0, the antibiotic was added to the tetracycline-free cultures (final concentration, 1 μg/ml), whereas the tetracycline-containing cultures were rinsed and incubated in fresh antibiotic-free medium (FIG. 3 panel b). At various times, cells were harvested and analyzed for luciferase activity. […] A similarly rapid reduction of luciferase activity was observed when tetracycline was added to the fully active tetracycline-free system: within 8 hr activity dropped to about 10% and reached <2% of its original value after 12 hr.

T1 sequence (P04483 whole entry, added parts left off): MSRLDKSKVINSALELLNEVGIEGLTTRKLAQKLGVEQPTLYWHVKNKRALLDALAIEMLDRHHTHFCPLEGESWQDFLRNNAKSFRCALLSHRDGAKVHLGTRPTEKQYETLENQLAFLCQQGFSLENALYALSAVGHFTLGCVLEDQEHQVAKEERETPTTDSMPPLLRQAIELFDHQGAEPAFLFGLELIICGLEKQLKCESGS
lacR, sequence (P03023 whole entry): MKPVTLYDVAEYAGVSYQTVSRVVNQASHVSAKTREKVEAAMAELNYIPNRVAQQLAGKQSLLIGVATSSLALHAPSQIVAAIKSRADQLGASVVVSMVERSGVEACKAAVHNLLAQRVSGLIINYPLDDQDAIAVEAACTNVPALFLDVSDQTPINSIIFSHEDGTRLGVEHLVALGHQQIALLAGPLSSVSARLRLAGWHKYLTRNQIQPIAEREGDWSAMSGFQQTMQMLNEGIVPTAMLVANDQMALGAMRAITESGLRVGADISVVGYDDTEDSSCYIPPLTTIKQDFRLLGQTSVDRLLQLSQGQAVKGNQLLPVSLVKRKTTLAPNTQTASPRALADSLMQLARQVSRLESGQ

In the case of `CC(C)S[C@@H]1O[C@H](CO)[C@H](O)[C@H](O)[C@H]1O` [IPTG, isopropyl.β-D-thiogalactopyranoside], the “ka of lacR for IPTG” value (lacR) is given as 10^6 M^−1, the “Reduction of binding constant kRo by the inducer” value (lacR; lacR/O system) is given as 1000 fold and the “Induction by IPTG” value (lacR/O) is given as “only moderate induction”.
For `Cc1c2c(c(O)c3c(O)cccc13)C(=O)[C@]1(O)C(=O)C(C(N)=O)=C(O)[C@@H](N(C)C)[C@@H]1C2` [anhydrotetracycline], the Antibiotic activity [1] is listed as “reduced antibiotic activity compared to Tc”.
In the case of `CN(C)[C@H]1C(O)=C(C(N)=O)C(=O)[C@@]2(O)C(O)=C3C(=O)c4c(O)cccc4[C@@](C)(O)[C@H]3[C@H](O)[C@@H]12` [epioxytetracycline], the Antibiotic activity [1] is listed as “reduced antibiotic activity compared to Tc”.
For `CN(C)[C@@H]1C(O)=C(C(N)=O)C(=O)[C@@]2(O)C(O)=C3C(=O)c4c(O)cccc4[C@@](C)(O)[C@H]3C[C@@H]12` [tetracycline], the “Tetracycline concentration at which changes in growth behavior or morphology were observed” value (HeLa cells; prolonged incubation) was “above 10 μg/ml”, the “Change in growth behavior or morphology of HeLa cells” value (HeLa cells; tetracycline 0.1 μg/ml) was “no change in growth behavior or morphology” and the “Luciferase activity after addition of tetracycline, share of original value” (tTA; after 12 hr) was less than 2%. For the same compound, the “Luciferase activity after addition of tetracycline, share of original value” (tTA; within 8 hr) was “about 10%” and the “Luciferase activity after depletion of tetracycline, share of fully induced (steady-state) level” value (tTA; within 12 hr after shift to tetracycline-free medium) was greater than 20%.
